Assay results taken from the NIST ThermoML archive (doi:10.1016/j.jct.2015.08.033).

Assay: mn = molality of the nth substance listed, in mol/kg
Conditions: 100 kPa, Liquid; for speed of sound: Frequency=3 MHz, Sing-around technique in a fixed-path interferometer; for mass density: Vibrating tube method

O=S(=O)([O-])C(F)(F)F.O=S(=O)([O-])C(F)(F)F.[Sr+2] [strontium trifluoromethanesulfonate] + CC(=O)N(C)C
Conditions	mass density, 298.15 K [kg/m3]	mass density, 303.15 K [kg/m3]	mass density, 308.15 K [kg/m3]	mass density, 313.15 K [kg/m3]	mass density, 318.15 K [kg/m3]	speed of sound, 298.15 K [m/s]	speed of sound, 303.15 K [m/s]	speed of sound, 308.15 K [m/s]	speed of sound, 313.15 K [m/s]	speed of sound, 318.15 K [m/s]
m1 = 0.009611	938.686	934.078	929.46	924.833	920.199	1456.3	1436.5	1416.7	1397	1377.5
m1 = 0.01616	940.308	935.702	931.087	926.462	921.831	1456.5	1436.8	1417	1397.3	1377.8
m1 = 0.02452	942.361	937.757	933.142	928.518	923.888	1456.8	1437.1	1417.4	1397.8	1378.3
m1 = 0.0346	944.817	940.215	935.603	930.982	926.353	1456.9	1437.2	1417.5	1398	1378.6
m1 = 0.04877	948.237	943.637	939.026	934.407	929.78	1457.1	1437.5	1418	1398.6	1379.2
m1 = 0.06177	951.363	946.763	942.151	937.533	932.906	1457.3	1437.8	1418.3	1398.9	1379.7
m1 = 0.07813	955.261	950.663	946.052	941.432	936.806	1457.5	1438.1	1418.7	1399.3	1380.1
m1 = 0.09814	960.007	955.407	950.795	946.177	941.551	1457.7	1438.4	1419.1	1399.8	1380.7
m1 = 0.1176	964.581	959.98	955.367	950.748	946.121	1458	1438.8	1419.5	1400.3	1381.3
m1 = 0.1476	971.566	966.955	962.34	957.717	953.091	1458.3	1439	1419.8	1400.8	1381.8

[Ba+2].[O-][Cl+3]([O-])([O-])[O-].[O-][Cl+3]([O-])([O-])[O-] [barium perchlorate] + CC(=O)N(C)C
Conditions	mass density, 298.15 K [kg/m3]	mass density, 303.15 K [kg/m3]	mass density, 308.15 K [kg/m3]	mass density, 313.15 K [kg/m3]	mass density, 318.15 K [kg/m3]	speed of sound, 298.15 K [m/s]	speed of sound, 303.15 K [m/s]	speed of sound, 308.15 K [m/s]	speed of sound, 313.15 K [m/s]	speed of sound, 318.15 K [m/s]
m1 = 0.01314	939.723	935.116	930.504	925.882	921.254	1457.2	1437.5	1417.7	1398.1	1378.6
m1 = 0.02301	942.289	937.692	933.085	928.469	923.849	1458	1438.3	1418.6	1399.1	1379.6
m1 = 0.03274	944.807	940.214	935.612	931.002	926.384	1458.8	1439.2	1419.5	1400	1380.6
m1 = 0.04665	948.382	943.793	939.196	934.591	929.98	1459.9	1440.4	1420.8	1401.4	1382
m1 = 0.06587	953.282	948.701	944.112	939.515	934.912	1461.4	1441.9	1422.5	1403.1	1383.8
m1 = 0.08329	957.7	953.122	948.539	943.99	939.4	1462.7	1443.3	1423.9	1405	1385.8
m1 = 0.1042	963.001	958.419	953.839	949.253	944.664	1464.5	1445	1425.7	1406.5	1387.4
m1 = 0.1312	969.764	965.202	960.631	956.055	951.474	1466.2	1447	1427.8	1408.8	1389.8
m1 = 0.1609	977.195	972.637	968.076	963.509	958.937	1468.4	1449.3	1430.3	1411.3	1392.5
m1 = 0.1965	985.908	981.362	976.808	972.249	967.689	1470.8	1451.9	1432.9	1414.1	1395.4
